A word on the IC50: it is the point on the concentration scale where inhibition reaches its midpoint.

Several values for one entry are separate records, joined by “and”; a condition that tells them apart may be missing. Equal values may be shown once.

The results in this text go back to publication PMC8358040, “The enzymatic activity of inositol hexakisphosphate kinase controls circulating phosphate in mammals” (Nature Communications, 2021).

A short description of data set [1]: Plasma concentration of SC-919, single-dose study in normal rats. Type of data set: in vivo, rat. Here is the method:
The experiment was performed with 8-week-old male SD rats (CLEA Japan, Inc.). […] The concentration of the compound in the plasma was measured at the same timepoints (n = 3).

Data set [2] can be described thus: Plasma concentration of SC-919, single-dose study in normal monkeys. The format is in vivo, cynomolgus monkey. Conditions: 0.3 mg/kg oral, time 1, individual animals (Fig3c). Here is the method: The experiments were performed at Hamamatsu Pharma Research, Inc. (Hamamatsu, Shizuoka, Japan), which is accredited by the American Association for Accreditation of Laboratory Animal Care. Male cynomolgus monkeys were housed in a room with controlled temperature, humidity, and lighting (12 h light/dark cycle). All monkeys were fed a regular diet (100 g/day, PS-A, Oriental Yeast Co., Ltd.) and had free access to tap water. The experiments were performed when the animals were 3–4 years old. The monkeys were randomized into different groups based on plasma phosphate, body weight (2.6–4.7 kg), and age (n = 6). Corn oil (FUJIFILM Wako) was used as a vehicle. […] Blood was collected from the cephalic vein, saphenous vein, or the femoral vein using a disposable syringe and needle at the indicated timepoints for the measurement of phosphate levels in the plasma. The concentration of the compound in the plasma was measured at the same timepoints (n = 6).

Data set [3] in a line: Plasma concentration of SC-919 in bilaterally nephrectomized rats. Conditions: bilaterally nephrectomised rats, 0.3 mg/kg oral, 5 h, individual animals (Fig4e). Type of data set: in vivo, rat. The procedure: The experiment was performed with 9-week-old male SD rats (CLEA Japan, Inc.). For bilateral nephrectomy, rats were fasted for 16 h and were subcutaneously injected with buprenorphine (0.05 mg/kg, Otsuka). Thirty minutes later, the rats were anesthetized using isoflurane (3% v/v) and kept on thermal pads at 37 °C with isoflurane (2% v/v). The left and right abdomen and the neck were shaved with a clipper. The surgical site was disinfected with a chlorhexidine-containing antiseptic solution, and the aesthetic state was confirmed by the disappearance of the pain reflex. The skin was incised to expose the kidney, and the renal artery and vein were ligated, which was followed by the isolation of the kidney. […] A sham operation group (n = 6), without nephrectomy, was prepared following the same procedure. After completion of the operation, meloxicam (1 mg/kg) was subcutaneously administered once a day during the study. One day after the operation, anaesthesia was introduced using the procedure described above, and blood was collected from the jugular vein.

A short description of data set [4]: Plasma concentration of SC-919 in adenine-treated rats (sub-chronic dose study).
Another data set concerns the target T1, human IP6K1 (Homo sapiens, UniProt Q92551).
T1 construct: made in house; host or cells: Sf9 insect cells (baculovirus)
Put plainly: ADP-Glo kinase assay for IP6K activity. The format is biochemical. To be noted: recombinant human IP6K1 15 nM, ATP 15 μM, InsP6 50 μM, 2 h; mean ± S.D. Background: In ADP-Glo the light output rises with the ADP produced.

The target of a further data set is T2, human IP6K2 (Homo sapiens, UniProt Q9UHH9).
T2 sequence (Q9UHH9 1-426): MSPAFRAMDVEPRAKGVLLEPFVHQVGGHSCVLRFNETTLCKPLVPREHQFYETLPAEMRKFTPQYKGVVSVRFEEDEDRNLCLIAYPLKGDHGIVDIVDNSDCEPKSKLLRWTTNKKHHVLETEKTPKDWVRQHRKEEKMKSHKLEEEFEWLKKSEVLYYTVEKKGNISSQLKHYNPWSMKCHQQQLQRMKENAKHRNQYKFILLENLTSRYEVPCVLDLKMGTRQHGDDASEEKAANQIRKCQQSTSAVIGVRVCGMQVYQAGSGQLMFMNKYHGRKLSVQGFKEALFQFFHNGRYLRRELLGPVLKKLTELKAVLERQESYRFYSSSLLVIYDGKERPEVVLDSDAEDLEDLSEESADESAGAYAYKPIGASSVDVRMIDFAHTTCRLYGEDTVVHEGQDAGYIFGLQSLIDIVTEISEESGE
Description: ADP-Glo kinase assay for IP6K activity. Conditions: read-out: IC50 IP6K2; recombinant human IP6K2 12 nM, ATP 15 μM, InsP6 50 μM, 2 h; mean ± S.D.

Another data set addresses T3, human IP6K3 (Homo sapiens, UniProt Q96PC2).
T3 sequence (Q96PC2 1-410): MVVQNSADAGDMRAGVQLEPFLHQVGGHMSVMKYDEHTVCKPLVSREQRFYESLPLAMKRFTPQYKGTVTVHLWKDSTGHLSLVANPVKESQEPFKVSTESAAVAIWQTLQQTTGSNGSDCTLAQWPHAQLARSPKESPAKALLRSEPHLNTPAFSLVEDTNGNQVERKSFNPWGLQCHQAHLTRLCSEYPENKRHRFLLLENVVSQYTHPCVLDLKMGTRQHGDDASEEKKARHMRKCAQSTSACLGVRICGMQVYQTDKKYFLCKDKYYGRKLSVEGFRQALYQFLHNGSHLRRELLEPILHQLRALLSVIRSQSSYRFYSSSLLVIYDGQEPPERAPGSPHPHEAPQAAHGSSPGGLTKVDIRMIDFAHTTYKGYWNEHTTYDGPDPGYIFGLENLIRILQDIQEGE
Description: ADP-Glo kinase assay for IP6K activity. To be noted: read-out: IC50 IP6K3; recombinant human IP6K3 […], ATP 15 μM, InsP6 50 μM, 2 h; mean ± S.D.

The test system of data set [5] is phosphate excretion in faeces. Description: Cumulative 32P activity in faeces of rats administered NaH2 32PO4. The format is in vivo, rat. To be noted: for Cumulative 32P activity in the faeces: lanthanum carbonate 1000 mg/kg 7th dose. The procedure: (§1) The experiment was performed using 8-week-old SD rats (CLEA Japan, Inc.). Male rats were randomly sorted into different groups based on their body weight (n = 5). […] After a 1 h treatment, NaH2^32PO4 solution (11 μCi/2 mL/rat) was administered orally. Following NaH2^32PO4 administration, rats were placed in metabolic cages, and faeces and urine were collected up to 72 h later. The compound was administered once a day during the 72 h experiment. […] The radioactivity (%) in the faecal and urine samples was calculated by setting the radioactivity of the administered NaH2^32PO4 to 100 %.

Data set [6] has as its system phosphate excretion in urine. Description: Cumulative 32P activity in urine of rats administered NaH2 32PO4. Type of data set: in vivo, rat. Conditions: lanthanum carbonate 1000 mg/kg 7th dose. The procedure: as §1

T1 sequence (Q92551 whole entry): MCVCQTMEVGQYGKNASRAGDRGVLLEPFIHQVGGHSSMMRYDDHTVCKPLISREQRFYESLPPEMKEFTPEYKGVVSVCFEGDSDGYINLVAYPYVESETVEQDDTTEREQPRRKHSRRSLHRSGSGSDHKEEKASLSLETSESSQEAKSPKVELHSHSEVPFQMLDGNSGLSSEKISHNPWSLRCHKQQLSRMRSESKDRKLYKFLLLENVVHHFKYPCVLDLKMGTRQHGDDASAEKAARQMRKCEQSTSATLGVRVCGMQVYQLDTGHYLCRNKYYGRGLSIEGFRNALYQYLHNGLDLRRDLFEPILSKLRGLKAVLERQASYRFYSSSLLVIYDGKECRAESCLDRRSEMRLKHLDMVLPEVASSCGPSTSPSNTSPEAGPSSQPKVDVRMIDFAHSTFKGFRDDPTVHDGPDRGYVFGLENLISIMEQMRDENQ

With `O=C(O)c1ccc2c(c1)[C@]1(CC[C@H](Oc3ncc(Cl)cc3Cl)CC1)C(=O)N2` [SC-919], in data set [1] (animal studies using rats and monkeys, reviewer response), the “Free SC-919 levels” value was “below 0.05 μM”. Besides, the “Plasma concentration of SC-919” value in data set [1] (normal rats, 1 mg/kg oral, time 1, individual animals (Fig3a), 1 mg/kg) was 1942.907 and 1856.710 and 1476.530; in data set [1] (normal rats, 1 mg/kg oral, time 2 (Fig3a), 1 mg/kg), 2011.947 and 2121.932 and 1778.126; in [1] (normal rats, 1 mg/kg oral, time 4 (Fig3a), 1 mg/kg), 2195.083 and 2444.564 and 1949.961; in data set [1] (normal rats, 1 mg/kg oral, time 8 (Fig3a), 1 mg/kg), 1948.434 and 2469.995 and 1783.145; in data set [1] (normal rats, 3 mg/kg oral, time 1 (Fig3a), 3 mg/kg), 4153.987 and 3662.163 and 4004.199; in data set [1] (normal rats, 3 mg/kg oral, time 2 (Fig3a), 3 mg/kg), 5074.332 and 4401.713 and 4372.837. Besides, the “Plasma concentration of SC-919” value is 5790.125 and 5489.252 and 5879.739 in [1] (normal rats, 3 mg/kg oral, time 4 (Fig3a), 3 mg/kg); 6166.814 and 6363.863 and 4651.047 in data set [1] (normal rats, 3 mg/kg oral, time 8 (Fig3a), 3 mg/kg); 11886.470 and 10328.550 and 8429.354 in [1] (normal rats, 10 mg/kg oral, time 1 (Fig3a), 10 mg/kg); 13647.120 and 11744.460 and 11378.370 in [1] (normal rats, 10 mg/kg oral, time 2 (Fig3a), 10 mg/kg); 14060.780 and 13051.160 and 10832.720 in [1] (normal rats, 10 mg/kg oral, time 4 (Fig3a), 10 mg/kg); 14559.520 and 13008.450 and 10214.420 in [1] (normal rats, 10 mg/kg oral, time 8 (Fig3a), 10 mg/kg). Also, the “Plasma concentration of SC-919” value in data set [1] (normal rats, 10 mg/kg oral, time 24 (Fig3a), 10 mg/kg) was 14337.480 and 9820.569 and 8024.378. The “Plasma SC-919 concentrations” value in data set [1] (normal rats, oral administration, in words) is “increased in a dose-dependent manner”. In [2], the “Concentration of SC-919 in plasma” value is 40.468 and 0.000 and 7.073 and 24.376 and 2.454 and 13.910. Further, the “Concentration of SC-919 (plasma)” value in [3] is 541.632 and 264.446 and 202.061 and 200.786 and 379.989 and 301.737 and 410.34; in [4] (1 mg/kg oral, initial dose, time 2, individual animals (Fig4a), 1 mg/kg), 928.621 and 807.664 and 876.622; in data set [4] (1 mg/kg, initial dose, time 6 (Fig4a)), 850.061 and 949.996 and 720.403; in data set [4] (1 mg/kg, seventh dose, time 2 (Fig4c)) it was 2909.926 and 3195.472 and 1783.864; in [4] (1 mg/kg, seventh dose, time 6 (Fig4c)) it was 2957.483 and 3182.718 and 1810.036; in data set [4] (1 mg/kg, seventh dose, time 24 (Fig4c)), 2238.331 and 2202.619 and 1356.448. Also, the “Concentration of SC-919 (plasma)” value in data set [4] (10 mg/kg, initial dose, time 2 (Fig4a)) is 5701.725 and 5986.890 and 6856.247; in data set [4] (10 mg/kg, initial dose, time 6 (Fig4a)), 4444.794 and 6665.965 and 6592.043; in [4] (10 mg/kg, initial dose, time 24 (Fig4a)), 2595.707 and 5143.151 and 4143.702; in [4] (10 mg/kg, seventh dose, time 2 (Fig4c)), 8573.125 and 12574.890 and 8591.283; in data set [4] (10 mg/kg, seventh dose, time 6 (Fig4c)), 7820.236 and 14817.670 and 9035.189.
Regarding `O=[N+]([O-])c1ccc(CNc2nc(NCc3cccc(C(F)(F)F)c3)nc3nc[nH]c23)cc1` [TNP, N2-(m-(trifluoromethyl)benzyl) N6-(p-nitrobenzyl)purine], the half-inhibitory concentration (IC50) came to 270 ± 100 nM at human IP6K1, 850 ± 330 nM on human IP6K2 and 260 ± 21 nM on human IP6K3.
Take `O=C([O-])[O-].O=C([O-])[O-].O=C([O-])[O-].[La+3].[La+3]` [Lanthanum carbonate]: the “32P activity / phosphate excretion in faeces vs vehicle” value in data set [5] (in words) is given as “increased”. Moreover, the “Cumulative 32P activity in the faeces” value in data set [5] (48 h (Fig3f)) is 53.2569% and 73.3985% and 64.9027% and 66.783% and 73.7253%; in data set [5] (72 h (Fig3f)), 53.7862% and 74.2778% and 65.7229% and 68.7476% and 74.3353%. The “Cumulative 32P activity in the urine” value is 0.04647% and 0.2136% and 1.254% and 0.632% and 0.6628% in [6] (8 h (Fig3g)); 0.658% and 2.356% and 3.626% and 2.673% and 3.04% in [6] (24 h (Fig3g)); 0.8554% and 3.259% and 4.427% and 3.818% and 3.918% in data set [6] (48 h (Fig3g)); 1.078% and 3.901% and 5.067% and 4.576% and 4.362% in [6] (72 h (Fig3g)).
